Read-outs that look alike come from different tables or passages of the source. Starred links: 1 amine or outer side, 2 acyl side, 3 side chain; linkers in the order of their positions; H or OH if unused. Positions of bridges follow the written chain, without caps; N, C: chain ends. Non-standard residues stand in square brackets, D forms with d. Residues, ends and D or L forms follow the SMILES beside them. ξ: configuration not given here. *: point of attachment. ξAbu(βξ-NH2) = CC(N[*:3])C(N[*:1])C(=O)[*:2]; X7 = CC(NC(=O)C1CCNCC1)C(N[*:1])C(=O)[*:2]; Pentadecanoyl = CCCCCCCCCCCCCCC(=O)*; ξAsp(βξ-Me) = CC(C(=O)O)C(N)C(=O)O; X12 = O=C(c1ccc(NN[*:1])cc1)[*:2]; ξAbu(3ξ-NH2) = CC(N)C(N)C(=O)O; Lauroyl = CCCCCCCCCCCC(=O)*; Pip = O=C(O)[CH]1CCCCN1
Tested on: Staphylococcus aureus (MSSA)
Protocol: (“Approved Standard M7-A3”).
The antimicrobial lipopeptide derivatives described herein were tested for antimicrobial activity against Gram-positive bacteria as follows. The minimum inhibitory concentrations (MIC) of the antimicrobial lipopeptide derivatives of the invention were determined using NCCLS guidelines M7-A6 (2003) with a slight modification in that doubling serial dilutions were used to dilute the test compounds. The broth phase microdilution method was used. Isolated colonies of Staphylococcus aureus (MSSA) from an 18-24 hour blood agar plate cultures were used to inoculate cation adjusted Mueller-Hinton broth (CAMHB) supplemented with 0.625 mM calcium. […] A negative control containing media alone and a positive growth control containing bacteria with media alone were also included. MICs were determined after incubating the plates at about 37° C. for 24 hours. […] In Tables 1 to 16, R is the core cyclic peptide of amphomycin or aspartocin, which can be in the form of a β-isomer, an anhydro, a dianhydro, or any combination thereof. […] Furthermore, a person of skill in the art will appreciate that all the pounds, or groups of compounds, derived from the various combinations of and substituents shown in Tables 1 to 16, are disclosed by the present the same extent as if each compound or group of compounds was set forth individually.

MIC (24 h)	MIC (S. aureus (MSSA), CAMHB supplemented with 0.625 mM calcium, 24 hours at about 37° C., a range = compound tested multiple times)	Structure (SMILES)
1 µg/mL		CCCCCCCCCCCCCCC(=O)NC(CC(=O)O)C(=O)NC1C(=O)N2CCCCC2C(=O)NC(C(C)C(=O)O)C(=O)NC(CC(=O)O)C(=O)NCC(=O)NC(CC(=O)O)C(=O)NCC(=O)NC(C(C)NC(=O)[C@@H](N)CCCCN)C(=O)NC(C(C)C)C(=O)N2CCCC2C(=O)NC1C (single isomer, unassigned) [Compound 129, C15-Amphomycin-9-Lys]
16 µg/mL		CCCCCCCCCCCCCCC(=O)NC(CC(=O)O)C(=O)NC1C(=O)N2CCCCC2C(=O)NC(C(C)C(=O)O)C(=O)NC(CC(=O)O)C(=O)NCC(=O)NC(CC(=O)O)C(=O)NCC(=O)NC(C(C)NC(=O)[C@@H](N)CCCCN)C(=O)NC(C(C)C)C(=O)N2CCCC2C(=O)NC1C (single isomer, unassigned) [Compound 172, C15-Amphomycin-9-Lys]
16 to 32 µg/mL		CCCCCCCCCCCCCCC(=O)NC(CC(=O)O)C(=O)NC1C(=O)N2CCCCC2C(=O)NC(C(C)C(=O)O)C(=O)NC(CC(=O)O)C(=O)NCC(=O)NC(CC(=O)O)C(=O)NCC(=O)NC(C(C)NC(=O)[C@@H](N)CC(C)C)C(=O)NC(C(C)C)C(=O)N2CCCC2C(=O)NC1C (stereo partly shown) [Compound 5, C15-Amphomycin-9-Leu]
32 to 64 µg/mL		CCCCCCCCCC(=O)NC(CC(=O)O)C(=O)NC1C(=O)N2CCCCC2C(=O)NC(C(C)C(=O)O)C(=O)NC(CC(=O)O)C(=O)NCC(=O)NC(CC(=O)O)C(=O)NCC(=O)NC(C(C)N)C(=O)NC(C(C)C)C(=O)N2CCCC2C(=O)NC1C (stereo not shown) [Compound 6, C10-Amphomycin]
32 to 64 µg/mL		CCCCCCCCCCC(=O)NC(CC(=O)O)C(=O)NC1C(=O)N2CCCCC2C(=O)NC(C(C)C(=O)O)C(=O)NC(CC(=O)O)C(=O)NCC(=O)NC(CC(=O)O)C(=O)NCC(=O)NC(C(C)N)C(=O)NC(C(C)C)C(=O)N2CCCC2C(=O)NC1C (stereo not shown) [Compound 7, C11-Amphomycin]
4 to 8 µg/mL		CCCCCCCCCCCC(=O)NC(CC(=O)O)C(=O)NC1C(=O)N2CCCCC2C(=O)NC(C(C)C(=O)O)C(=O)NC(CC(=O)O)C(=O)NCC(=O)NC(CC(=O)O)C(=O)NCC(=O)NC(C(C)N)C(=O)NC(C(C)C)C(=O)N2CCCC2C(=O)NC1C (stereo not shown) [Compound 8, C12-Amphomycin]
0.5 to 1 µg/mL		CCCCCCCCCCCCC(=O)NC(CC(=O)O)C(=O)NC1C(=O)N2CCCCC2C(=O)NC(C(C)C(=O)O)C(=O)NC(CC(=O)O)C(=O)NCC(=O)NC(CC(=O)O)C(=O)NCC(=O)NC(C(C)N)C(=O)NC(C(C)C)C(=O)N2CCCC2C(=O)NC1C (stereo not shown) [Compound 9, C13-Amphomycin]
1 µg/mL		CCCCCCCCCCCCCC(=O)NC(CC(=O)O)C(=O)NC1C(=O)N2CCCCC2C(=O)NC(C(C)C(=O)O)C(=O)NC(CC(=O)O)C(=O)NCC(=O)NC(CC(=O)O)C(=O)NCC(=O)NC(C(C)N)C(=O)NC(C(C)C)C(=O)N2CCCC2C(=O)NC1C (stereo not shown) [Compound 10, C14-Amphomycin]
2 µg/mL		CCCCCCCCCCCCCCCCCC(=O)NC(CC(=O)O)C(=O)NC1C(=O)N2CCCCC2C(=O)NC(C(C)C(=O)O)C(=O)NC(CC(=O)O)C(=O)NCC(=O)NC(CC(=O)O)C(=O)NCC(=O)NC(C(C)N)C(=O)NC(C(C)C)C(=O)N2CCCC2C(=O)NC1C (stereo not shown) [Compound 13, C18-Amphomycin]
0.5 to 1 µg/mL		CCCCCCCCCCOc1ccc(C(=O)NC(CC(=O)O)C(=O)NC2C(=O)N3CCCCC3C(=O)NC(C(C)C(=O)O)C(=O)NC(CC(=O)O)C(=O)NCC(=O)NC(CC(=O)O)C(=O)NCC(=O)NC(C(C)N)C(=O)NC(C(C)C)C(=O)N3CCCC3C(=O)NC2C)cc1 (stereo not shown) [Compound 18, CH3—(CH2)9—O-p-Ph-C(═O)-Amphomycin]
0.5 µg/mL		CCCCCCCCOc1ccc(C(=O)NC(CC(=O)O)C(=O)NC2C(=O)N3CCCCC3C(=O)NC(C(C)C(=O)O)C(=O)NC(CC(=O)O)C(=O)NCC(=O)NC(CC(=O)O)C(=O)NCC(=O)NC(C(C)N)C(=O)NC(C(C)C)C(=O)N3CCCC3C(=O)NC2C)cc1 (stereo not shown) [Compound 19, CH3—(CH2)7—O-p-Ph-C(═O)-Amphomycin]
1 µg/mL		CCCCCCCCCCCC(=O)NNc1ccc(C(=O)NC(CC(=O)O)C(=O)NC2C(=O)N3CCCCC3C(=O)NC(C(C)C(=O)O)C(=O)NC(CC(=O)O)C(=O)NCC(=O)NC(CC(=O)O)C(=O)NCC(=O)NC(C(C)N)C(=O)NC(C(C)C)C(=O)N3CCCC3C(=O)NC2C)cc1 (stereo not drawn) [Compound 21, C12-p-Hydrazinobenzoic Acid-Amphomycin] (Lauroyl-[X12]D[ξAbu(βξ-NH2)][Pip][ξAsp(βξ-Me)]DGDG[ξAbu(3ξ-NH2)]VP; lactam 3-C; configuration not given here)
	23/8-16 μg/mL	CCCCCCCCCCCCCC(=O)NC(CC(=O)O)C(=O)NC1C(=O)N2CCCCC2C(=O)NC(C(C)C(=O)O)C(=O)NC(CC(=O)O)C(=O)NCC(=O)NC(CC(=O)O)C(=O)NCC(=O)NC(C(C)NC(=O)CN)C(=O)NC(C(C)C)C(=O)N2CCCC2C(=O)NC1C (stereo not shown) [Compound 23, C14-Amphomycin-9-Gly]
1 µg/mL		CCCCCCCCCCCCCCC(=O)NC(CC(=O)O)C(=O)NC1C(=O)N2CCCCC2C(=O)NC(C(C)C(=O)O)C(=O)NC(CC(=O)O)C(=O)NCC(=O)NC(CC(=O)O)C(=O)NCC(=O)NC(C(C)NC(=O)CCCCCN)C(=O)NC(C(C)C)C(=O)N2CCCC2C(=O)NC1C (stereo not shown) [Compound 25, C15-Amphomycin-9-Ahx]
4 µg/mL		CCCCCCCCCCCCCCC(=O)NC(CC(=O)O)C(=O)NC1C(=O)N2CCCCC2C(=O)NC(C(C)C(=O)O)C(=O)NC(CC(=O)O)C(=O)NCC(=O)NC(CC(=O)O)C(=O)NCC(=O)NC(C(C)NC(=O)C2CCNCC2)C(=O)NC(C(C)C)C(=O)N2CCCC2C(=O)NC1C (stereo not drawn) [Compound 26, C15-Amphomycin-9-Ina] (Pentadecanoyl-D[ξAbu(βξ-NH2)][Pip][ξAsp(βξ-Me)]DGDG[X7]VP; lactam 2-C; configuration not given here)
32 to 64 µg/mL		CCCCCCCCCCCCCCC(=O)NC(CC(=O)O)C(=O)NC1C(=O)N2CCCCC2C(=O)NC(C(C)C(=O)O)C(=O)NC(CC(=O)O)C(=O)NCC(=O)NC(CC(=O)O)C(=O)NCC(=O)NC(C(C)NC(=O)[C@@H](N)Cc2ccc([N+](=O)[O-])cc2)C(=O)NC(C(C)C)C(=O)N2CCCC2C(=O)NC1C (stereo partly shown) [Compound 27, C15-Amphomycin-9-(P—NO2-Phe)]
2 µg/mL		CCCCCCCCCCCCCCC(=O)NC(CC(=O)O)C(=O)NC1C(=O)N2CCCCC2C(=O)NC(C(C)C(=O)O)C(=O)NC(CC(=O)O)C(=O)NCC(=O)NC(CC(=O)O)C(=O)NCC(=O)NC(C(C)NC(=O)CNC(=O)[C@@H](N)Cc2ccccc2)C(=O)NC(C(C)C)C(=O)N2CCCC2C(=O)NC1C (stereo partly shown) [Compound 28, C15-Amphomycin-9-Gly-Phe]
1 µg/mL		CCCCCCCCCCCCCCC(=O)NC(CC(=O)O)C(=O)NC1C(=O)N2CCCCC2C(=O)NC(C(C)C(=O)O)C(=O)NC(CC(=O)O)C(=O)NCC(=O)NC(CC(=O)O)C(=O)NCC(=O)NC(C(C)NC(=O)[C@@H](N)CCC(=O)O)C(=O)NC(C(C)C)C(=O)N2CCCC2C(=O)NC1C (stereo partly shown) [Compound 29, C15-Amphomycin-9-Glu]
32 to 64 µg/mL		CCCCCCCCCCCCCCC(=O)NC(CC(=O)O)C(=O)NC1C(=O)N2CCCCC2C(=O)NC(C(C)C(=O)O)C(=O)NC(CC(=O)O)C(=O)NCC(=O)NC(CC(=O)O)C(=O)NCC(=O)NC(C(C)NC(=O)[C@@H](N)Cc2ccc(F)cc2)C(=O)NC(C(C)C)C(=O)N2CCCC2C(=O)NC1C (stereo partly shown) [Compound 30, C15-Amphomycin-9-(P—F-Phe)]
16 µg/mL		CCCCCCCCCCCCCCC(=O)NC(CC(=O)O)C(=O)NC1C(=O)N2CCCCC2C(=O)NC(C(C)C(=O)O)C(=O)NC(CC(=O)O)C(=O)NCC(=O)NC(CC(=O)O)C(=O)NCC(=O)NC(C(C)NC(=O)[C@@H](N)CC2CCCCC2)C(=O)NC(C(C)C)C(=O)N2CCCC2C(=O)NC1C (stereo partly drawn) [Compound 31, C15-Amphomycin-9-(β-Cha)]
8 µg/mL		CCCCCCCCCCCCCCC(=O)NC(CC(=O)O)C(=O)NC1C(=O)N2CCCCC2C(=O)NC(C(C)C(=O)O)C(=O)NC(CC(=O)O)C(=O)NCC(=O)NC(CC(=O)O)C(=O)NCC(=O)NC(C(C)NC(=O)[C@@H](N)CCc2ccccc2)C(=O)NC(C(C)C)C(=O)N2CCCC2C(=O)NC1C (stereo partly shown) [Compound 32, C15-Amphomycin-9-hPhe]
0.5 to 1 µg/mL		CCCCCCCCCCCCCCC(=O)NC(CC(=O)O)C(=O)NC1C(=O)N2CCCCC2C(=O)NC(C(C)C(=O)O)C(=O)NC(CC(=O)O)C(=O)NCC(=O)NC(CC(=O)O)C(=O)NCC(=O)NC(C(C)NC(=O)CNC(=O)CNC(=O)CN)C(=O)NC(C(C)C)C(=O)N2CCCC2C(=O)NC1C (stereo not drawn) [Compound 33, C15-Amphomycin-9-Gly-Gly-Gly]
32 to 64 µg/mL		CCCCCCCCCCCCCCC(=O)NC(CC(=O)O)C(=O)NC1C(=O)N2CCCCC2C(=O)NC(C(C)C(=O)O)C(=O)NC(CC(=O)O)C(=O)NCC(=O)NC(CC(=O)O)C(=O)NCC(=O)NC(C(C)NC(=O)CCCCCCCCCCN)C(=O)NC(C(C)C)C(=O)N2CCCC2C(=O)NC1C (stereo not shown) [Compound 34, C15-Amphomycin-9-C(═O)—(CH2)10—NH2]
8 to 16 µg/mL		CCCCCCCCCCCCCCC(=O)NC(CC(=O)O)C(=O)NC1C(=O)N2CCCCC2C(=O)NC(C(C)C(=O)O)C(=O)NC(CC(=O)O)C(=O)NCC(=O)NC(CC(=O)O)C(=O)NCC(=O)NC(C(C)NC(=O)[C@@H](N)CC#N)C(=O)NC(C(C)C)C(=O)N2CCCC2C(=O)NC1C (stereo partly drawn) [Compound 35, C15-Amphomycin-9-(β-Cyano-Ala)]
8 to 16 µg/mL		CCCCCCCCCCCCCCC(=O)NC(CC(=O)O)C(=O)NC1C(=O)N2CCCCC2C(=O)NC(C(C)C(=O)O)C(=O)NC(CC(=O)O)C(=O)NCC(=O)NC(CC(=O)O)C(=O)NCC(=O)NC(C(C)NC(=O)[C@@H](N)[C@@H](C)CC)C(=O)NC(C(C)C)C(=O)N2CCCC2C(=O)NC1C (stereo partly shown) [Compound 36, C15-Amphomycin-9-Ile]
